Data as given in patent US20250032651A1, “[177LU] LUTETIUM-PSMA I&T COMPOSITION AND DOSIMETRY, KIT, METHOD OF MAKING, AND METHOD OF USING THEREOF” (Curium US LLC, priority 2022, published 2025).

Assay: Normal organ dosimetry Cycle 1: SPECT/CT, TIACs, OLINDA 2.2.3 absorbed radiation dose
Type: in vivo, human
Conditions: for Absorbed Dose, Mean / Absorbed Dose, max / Absorbed Dose, median / Absorbed Dose, min: Cycle 1, n = 26
Procedure: This Example presents the biodistribution, dosimetry, and pharmacokinetics (PK) results of a PK/Dosimetry sub-study performed as part of a Phase III trial. Twenty-seven (27) patients were administered a target activity of 7.4±10% GBq of ^177Lu-PSMA-I&T and underwent single photon emission computed tomography (SPECT)/computed tomography (CT) imaging at four timepoints (4 h, 24 h, 48 h, and 168 h). Image data was analysed to compute time-activity curves (TACs) and subsequently time-integrated activity coefficients (TIACs) in each organ of interest and in organs showing appreciable and meaningful ^177Lu-PSMA-I&T activity. Organ Level Internal Dose Assessment (OLINDA 2.2.3) was used to compute organ and whole body absorbed radiation doses for each patient.
All participating sites underwent a rigorous site setup process during which all dose calibrators, scanners, and gamma counters used in the sub-study were calibrated. Sites were allowed to enroll patients in the sub-study only after the completion and approval of all site setup processes by Invicro. Patients underwent SPECT/CT imaging, with anatomical coverage typically extending from the salivary glands to the pelvis, following the administration of a targeted 7.4±10% GBq of ^177Lu-PSMA-I&T at cycle 1. SPECT/CT imaging was performed at four timepoints: 4 h, 24 h, 48 h, and 168 h post-injection. Additionally, a subset of patients imaged at Cycle 1 (16 out of 27), were also imaged at Cycle 3 (Table 2).
The imaging data was analyzed using Invicro's VivoQuant software, a validated software used in a 21 CFR § 11-compliant workflow. The general quantification approach was based on the principles detailed in the Medical Internal Radiation Dose (MIRD) Pamphlet No. 16, No 23, and No 26 as appropriate.
Volume of interest (VOI) (kidneys, bladder, liver, lumbar vertebrae L2-L4, lacrimal glands, salivary glands [parotid and submandibular glands], and whole body) were delineated on each dataset by a trained image analyst. […] Organs were segmented either by drawing the entire contour of the organ, or by placing a sphere in a representative region of the organ and then multiplying by the organ's effective mass (based on patient's height and weight). Segmentation methods for each organ are specified in Table 3 and were consistently applied to each patient.
Clearance of the radiopharmaceutical was derived from a data-appropriate fit of each organ's TAC. Depending on the TAC's shape, the data was fitted with the sum of one, two, or three exponentials, or using a rise and fall model. Fitting was performed with in-house Python software. TIACs were calculated through analytical integration of the curve fit extrapolated to infinity. […] A whole-body TAC was derived from delineating the imaged body. The remainder activity was determined by subtracting the cumulative organ TIACs from the whole body TIAC.
Organ TIACs were input into OLINDA 2.2.3 for the computation of organ and whole-body absorbed doses, using International Commission on Radiological Protection (ICRP)-103 weighing factors. The ICRP-89 derived male phantom was used for dose estimation. Organs and body mass as defined by ICRP-89 were scaled based on height and mass using patient effective mass.^4 The voiding bladder model as implemented in OLINDA was used to determine bladder TIAC, assuming a voiding interval of 4 hours. The human alimentary tract model (HAT model) described in ICRP 100 and implemented in OLINDA was used to compute doses to the small intestine, right colon, left colon and rectum for patients showing clearance through the GI tract. The fraction of injected activity (fIA) cleared via the GI tract was determined by taking the peak fIA in the GI tract over all the imaging timepoints. […] The Red Marrow mass in L2-L4 was assumed to be 6.7% of the total red marrow mass.

[1] = Kidneys, 16 patients imaged at cycle 1 and 3
[2] = Lacrimal Glands (OLINDA sphere model), 16 patients imaged at cycle 1 and 3
[3] = Lacrimal Glands, N = 16, OLINDA sphere model
[4] = Left colon, 16 patients imaged at cycle 1 and 3
[5] = Liver, 16 patients imaged at cycle 1 and 3
[6] = Lungs, 16 patients imaged at cycle 1 and 3
[7] = Osteogenic cells, 16 patients imaged at cycle 1 and 3
[8] = Pancreas, 16 patients imaged at cycle 1 and 3

O=C([O-])CC[C@H](NC(=O)N[C@@H](CCCCNC(=O)CCCCCCC(=O)NCCCC[C@@H](NC(=O)[C@@H](Cc1ccccc1)NC(=O)[C@@H](Cc1ccc(O)c(I)c1)NC(=O)CC[C@H](C(=O)[O-])N1CCN(CC(=O)[O-])CCN(CC(=O)[O-])CCN(CC(=O)[O-])CC1)C(=O)[O-])C(=O)[O-])C(=O)[O-].[177Lu+3].[H+].[H+].[H+].[H+].[H+] [^177Lu-PSMA I&T, (3S,7S,26R,29R,32R,37R)-29-benzyl-32-(4-hydroxy-3-iodobenzyl)-5,13,20,28,31,34-hexaoxo-37-(4,7,10-tris(carboxymethyl)-1,4,7,10-tetraazacyclododecan-1-yl)-4,6,12,21,27,30,33-heptaazaheptatriacontane-1,3,7,26,37-pentacarboxylic acid; lutetium-177 (III)]
Absorbed Dose in Cycle 1, min (Heart wall, N = 16): 0.00 Gy/GBq
Absorbed Dose in Cycle 1, Mean [1]: 0.41 Gy/GBq
Absorbed Dose in Cycle 1, max [1]: 0.81 Gy/GBq
Absorbed Dose in Cycle 1, min [1]: 0.17 Gy/GBq
Absorbed Dose, Mean (Kidneys): 0.41 Gy/GBq
Absorbed Dose, max (Kidneys): 0.81 Gy/GBq
Absorbed Dose, median (Kidneys): 0.37 Gy/GBq
Absorbed Dose, min (Kidneys): 0.17 Gy/GBq
Absorbed Dose in Cycle 1, Mean (Kidneys, N = 16): 0.41 Gy/GBq
Absorbed Dose in Cycle 1, max (Kidneys, N = 16): 0.81 Gy/GBq
Absorbed Dose in Cycle 1, min (Kidneys, N = 16): 0.17 Gy/GBq
Absorbed Dose in Cycle 1, Mean [2]: 0.39 Gy/GBq
Absorbed Dose in Cycle 1, max [2]: 1.19 Gy/GBq
Absorbed Dose in Cycle 1, min [2]: 0.04 Gy/GBq
Absorbed Dose, Mean (Lacrimal Glands): 0.40 Gy/GBq
Absorbed Dose, max (Lacrimal Glands): 1.19 Gy/GBq
Absorbed Dose, median (Lacrimal Glands): 0.26 Gy/GBq
Absorbed Dose, min (Lacrimal Glands): 0.04 Gy/GBq
Absorbed Dose in Cycle 1, Mean [3]: 0.39 Gy/GBq
Absorbed Dose in Cycle 1, max [3]: 1.19 Gy/GBq
Absorbed Dose in Cycle 1, min [3]: 0.04 Gy/GBq
Absorbed Dose in Cycle 1, Mean [4]: 0.52 Gy/GBq
Absorbed Dose in Cycle 1, max [4]: 1.53 Gy/GBq
Absorbed Dose in Cycle 1, min [4]: 0.01 Gy/GBq
Absorbed Dose, Mean (Left colon): 0.47 Gy/GBq
Absorbed Dose, max (Left colon): 1.53 Gy/GBq
Absorbed Dose, median (Left colon): 0.41 Gy/GBq
Absorbed Dose, min (Left colon): 0.01 Gy/GBq
Absorbed Dose in Cycle 1, Mean (Left colon, N = 16): 0.52 Gy/GBq
Absorbed Dose in Cycle 1, max (Left colon, N = 16): 1.53 Gy/GBq
Absorbed Dose in Cycle 1, min (Left colon, N = 16): 0.01 Gy/GBq
Absorbed Dose in Cycle 1, Mean [5]: 0.04 Gy/GBq
Absorbed Dose in Cycle 1, max [5]: 0.10 Gy/GBq
Absorbed Dose in Cycle 1, min [5]: 0.01 Gy/GBq
Absorbed Dose, Mean (Liver): 0.04 Gy/GBq
Absorbed Dose, max (Liver): 0.10 Gy/GBq
Absorbed Dose, median (Liver): 0.03 Gy/GBq
Absorbed Dose, min (Liver): 0.01 Gy/GBq
Absorbed Dose in Cycle 1, Mean (Liver, N = 16): 0.04 Gy/GBq
Absorbed Dose in Cycle 1, max (Liver, N = 16): 0.10 Gy/GBq
Absorbed Dose in Cycle 1, min (Liver, N = 16): 0.01 Gy/GBq
Absorbed Dose in Cycle 1, Mean [6]: 0.01 Gy/GBq
Absorbed Dose in Cycle 1, max [6]: 0.07 Gy/GBq
Absorbed Dose in Cycle 1, min [6]: 0.00 Gy/GBq
Absorbed Dose, Mean (Lungs): 0.01 Gy/GBq
Absorbed Dose, max (Lungs): 0.07 Gy/GBq
Absorbed Dose, median (Lungs): 0.01 Gy/GBq
Absorbed Dose, min (Lungs): 0.00 Gy/GBq
Absorbed Dose in Cycle 1, Mean (Lungs, N = 16): 0.01 Gy/GBq
Absorbed Dose in Cycle 1, max (Lungs, N = 16): 0.07 Gy/GBq
Absorbed Dose in Cycle 1, min (Lungs, N = 16): 0.00 Gy/GBq
Absorbed Dose in Cycle 1, Mean [7]: 0.04 Gy/GBq
Absorbed Dose in Cycle 1, max [7]: 0.19 Gy/GBq
Absorbed Dose in Cycle 1, min [7]: 0.00 Gy/GBq
Absorbed Dose, Mean (Osteogenic cells): 0.05 Gy/GBq
Absorbed Dose, max (Osteogenic cells): 0.29 Gy/GBq
Absorbed Dose, median (Osteogenic cells): 0.02 Gy/GBq
Absorbed Dose, min (Osteogenic cells): 0.00 Gy/GBq
Absorbed Dose in Cycle 1, Mean (Osteogenic cells, N = 16): 0.04 Gy/GBq
Absorbed Dose in Cycle 1, max (Osteogenic cells, N = 16): 0.19 Gy/GBq
Absorbed Dose in Cycle 1, min (Osteogenic cells, N = 16): 0.00 Gy/GBq
Absorbed Dose in Cycle 1, Mean [8]: 0.02 Gy/GBq
Absorbed Dose in Cycle 1, max [8]: 0.07 Gy/GBq
Absorbed Dose in Cycle 1, min [8]: 0.00 Gy/GBq
Absorbed Dose, Mean (Pancreas): 0.02 Gy/GBq
Absorbed Dose, max (Pancreas): 0.07 Gy/GBq
Absorbed Dose, median (Pancreas): 0.01 Gy/GBq
